Experimental data from ChEMBL document CHEMBL1141064, “Discovery and structure-activity relationships of novel sulfonamides as potent PTP1B inhibitors” (Bioorg Med Chem Lett, 2005).

Target: T1, Tyrosine-protein phosphatase non-receptor type 1 (Homo sapiens, UniProt P18031)
T1 sequence (P18031 whole entry): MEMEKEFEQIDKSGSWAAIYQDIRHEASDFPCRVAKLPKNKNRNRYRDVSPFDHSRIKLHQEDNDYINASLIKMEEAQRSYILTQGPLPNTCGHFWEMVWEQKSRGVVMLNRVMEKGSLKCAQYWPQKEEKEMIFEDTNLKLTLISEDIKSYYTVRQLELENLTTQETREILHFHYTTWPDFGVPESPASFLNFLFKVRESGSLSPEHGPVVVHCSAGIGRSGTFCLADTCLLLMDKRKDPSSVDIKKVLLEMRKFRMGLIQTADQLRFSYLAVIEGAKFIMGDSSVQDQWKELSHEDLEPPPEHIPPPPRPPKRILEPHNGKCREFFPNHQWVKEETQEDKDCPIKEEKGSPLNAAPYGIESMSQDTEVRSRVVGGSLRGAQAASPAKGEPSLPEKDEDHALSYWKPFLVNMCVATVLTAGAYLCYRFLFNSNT
Test: Inhibitory activity against protein tyrosine phosphatase 1B using O-methyl fluorescein monophosphate

| Structure (SMILES) | IC50 | Ki |
| --- | --- | --- |
| O=C(O)COc1ccc(S(=O)(=O)N(Cc2ccccc2)Cc2ccc(C(F)(F)P(=O)(O)O)cc2)cc1 | 600 nM |  |
| COc1cc(CN(Cc2ccc(S(=O)(=O)N(C)C)cc2)S(=O)(=O)c2ccc(OCC(=O)O)cc2)ccc1C(F)(F)P(=O)(O)O | 1100 nM |  |
| O=C(O)COc1c(F)ccc(S(=O)(=O)N(Cc2ccccc2)Cc2ccc(C(F)(F)P(=O)(O)O)cc2)c1F | 1600 nM |  |
| CN(Cc1ccccc1)C(=O)CN(Cc1ccc(C(F)(F)P(=O)(O)O)c(Br)c1)S(=O)(=O)c1ccc(OCC(=O)O)cc1 | 31 nM | 14 nM |
| O=C(O)COc1ccc(S(=O)(=O)N(CC(=O)N2CCCCC2)Cc2ccc(C(F)(F)P(=O)(O)O)cc2)cc1 | 6800 nM |  |
| CN(Cc1ccccc1)C(=O)CN(Cc1ccc(OCC(=O)O)cc1)Cc1ccc(C(F)(F)P(=O)(O)O)cc1 | 67500 nM |  |
| O=C(O)COc1ccc(C(=O)N(Cc2ccc(-c3csnn3)cc2)Cc2ccc(C(F)(F)P(=O)(O)O)cc2)cc1 | 2300 nM |  |
| Cc1cc(S(=O)(=O)N(Cc2ccccc2)Cc2ccc(C(F)(F)P(=O)(O)O)cc2)ccc1OCC(=O)O | 4000 nM |  |
| O=C(O)COc1ccc(S(=O)(=O)N(Cc2ccc(-c3csnn3)cc2)Cc2ccc(C(F)(F)P(=O)(O)O)c(Br)c2)cc1 | 35 nM | 53 nM |
| CC(=O)c1cccc(CN(Cc2ccc(C(F)(F)P(=O)(O)O)cc2)S(=O)(=O)c2ccc(OCC(=O)O)cc2)c1 | 770 nM |  |
| COc1cc(CN(Cc2ccc(-c3csnn3)cc2)S(=O)(=O)c2ccc(OCC(=O)O)cc2)ccc1C(F)(F)P(=O)(O)O | 60 nM |  |
| O=P(O)(O)C(F)(F)c1ccc(CN(Cc2ccc(-c3csnn3)cc2)S(=O)(=O)c2ccccc2)cc1 | 210 nM | 98 nM |
| CC(=O)NCCN(Cc1ccc(C(F)(F)P(=O)(O)O)cc1)S(=O)(=O)c1ccc(OCC(=O)O)cc1 | 9000 nM |  |
| CS(=O)(=O)Nc1ccc(CN(Cc2ccc(C(F)(F)P(=O)(O)O)cc2)S(=O)(=O)c2ccc(OCC(=O)O)cc2)cc1 | 180 nM |  |
| O=C(O)COc1ccc(S(=O)(=O)N(Cc2ccc(C(F)(F)P(=O)(O)O)cc2)c2ccc(-c3csnn3)cc2)cc1 | 220 nM |  |
| O=C(c1ccc(CN(Cc2ccccc2)S(=O)(=O)c2ccccc2[N+](=O)[O-])cc1)C(F)(F)P(=O)(O)O | 12000 nM |  |

The remaining molecules from weak to strong by IC50, led by results:

| IC50 | Ki | Structure (SMILES) |
| --- | --- | --- |
| 13700 nM |  | O=P(O)(O)C(F)(F)c1ccc(CNCc2ccc(-c3csnn3)cc2)cc1 |
| 7000 nM |  | O=[N+]([O-])c1ccccc1S(=O)(=O)N(Cc1ccccc1)Cc1ccc(C(F)(F)P(=O)(O)O)cc1 |
| 6900 nM |  | O=C(c1ccc(O)cc1)N(Cc1ccc(-c2csnn2)cc1)Cc1ccc(C(F)(F)P(=O)(O)O)cc1 |
| 5000 nM |  | O=C(O)COc1ccc(S(=O)(=O)N(Cc2ccccc2)Cc2ccc(C(F)(F)P(=O)(O)O)cc2)cc1OC(F)(F)F |
| 4200 nM |  | O=P(O)(O)C(F)(F)c1ccc(CN(Cc2ccccc2)S(=O)(=O)c2ccccc2)cc1 |
| 4000 nM |  | O=C(O)COc1ccc(S(=O)(=O)N(Cc2ccccc2)Cc2ccc(C(F)(F)P(=O)(O)O)cc2)cc1C(F)(F)F |
| 4000 nM |  | O=C(O)COc1ccc(S(=O)(=O)N(Cc2ccccc2)Cc2ccc(C(F)(F)P(=O)(O)O)cc2)cc1Br |
| 3000 nM |  | O=C(O)COc1ccc(S(=O)(=O)N(Cc2ccccc2)Cc2ccc(C(F)(F)P(=O)(O)O)cc2)cc1F |
| 3000 nM |  | O=C(O)COc1ccc(S(=O)(=O)N(Cc2ccccc2)Cc2ccc(C(F)(F)P(=O)(O)O)cc2)cc1Cl |
| 2900 nM |  | O=C(O)c1cc(S(=O)(=O)N(Cc2ccccc2)Cc2ccc(C(F)(F)P(=O)(O)O)cc2)ccc1O |
| 1900 nM |  | Cc1cc(S(=O)(=O)N(Cc2ccccc2)Cc2ccc(C(F)(F)P(=O)(O)O)cc2)cc(C)c1OCC(=O)O |
| 1100 nM |  | CN(C)S(=O)(=O)c1ccc(CN(Cc2ccc(C(F)(F)P(=O)(O)O)cc2)S(=O)(=O)c2ccc(OCC(=O)O)cc2)cc1 |
| 1000 nM |  | O=C(O)COc1ccc(S(=O)(=O)N(Cc2ccc(C(F)(F)P(=O)(O)O)cc2)Cc2cccs2)cc1 |
| 1000 nM |  | O=C(O)COc1c(F)cc(S(=O)(=O)N(Cc2ccccc2)Cc2ccc(C(F)(F)P(=O)(O)O)cc2)cc1F |
| 630 nM |  | O=C(O)COc1ccc(S(=O)(=O)N(Cc2ccc(NC(=O)c3ccccc3)cc2)Cc2ccc(C(F)(F)P(=O)(O)O)cc2)cc1 |
| 600 nM | 590 nM | CN(Cc1ccccc1)C(=O)CN(Cc1ccc(C(F)(F)P(=O)(O)O)cc1)S(=O)(=O)c1ccc(OCC(=O)O)cc1 |
| 74 nM | 56 nM | O=C(O)COc1ccc(S(=O)(=O)N(Cc2ccc(-c3csnn3)cc2)Cc2ccc(C(F)(F)P(=O)(O)O)cc2)cc1 |
| 28 nM | 13 nM | CN(C)S(=O)(=O)c1ccc(CN(Cc2ccc(C(F)(F)P(=O)(O)O)c(Br)c2)S(=O)(=O)c2ccc(OCC(=O)O)cc2)cc1 |
